Experimental data reported in ChEMBL document CHEMBL1909046, “DrugMatrix in vitro pharmacology data”.

Assays:
[1] = DRUGMATRIX: beta-Lactamase enzyme inhibition (substrate: Nitrocefin); set-up: species or system Bacillus cereus; conditions: Not Active = under 50% inhibition at 10 µM
[2] = DRUGMATRIX: Serotonin (5-Hydroxytryptamine) 5-HT3 radioligand binding (ligand: [3H] GR-65630); assay type: cell membranes, Membrane; conditions: hek293; Not Active = under 50% inhibition at 10 µM
[3] = molecular target: T1, C-C chemokine receptor type 4 (Homo sapiens, UniProt P51679); assay type: cell membranes, Chem-1, Membrane; conditions: chem-1; further: in other assays of this panel Not Active means under 50% inhibition at 10 µM
T1 sequence (P51679 whole entry): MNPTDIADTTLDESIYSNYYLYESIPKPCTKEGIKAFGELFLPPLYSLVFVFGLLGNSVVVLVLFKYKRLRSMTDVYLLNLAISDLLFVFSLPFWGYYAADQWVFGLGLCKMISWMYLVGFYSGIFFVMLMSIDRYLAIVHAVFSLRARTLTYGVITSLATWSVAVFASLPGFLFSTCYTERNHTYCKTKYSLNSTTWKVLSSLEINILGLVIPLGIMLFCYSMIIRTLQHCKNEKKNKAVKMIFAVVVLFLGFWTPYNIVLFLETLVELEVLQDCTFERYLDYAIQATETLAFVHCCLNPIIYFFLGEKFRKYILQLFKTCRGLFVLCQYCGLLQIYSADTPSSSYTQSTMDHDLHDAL

[4] = molecular target: T2, Cholecystokinin receptor type A (Homo sapiens, UniProt P32238); assay type: cell membranes, Membrane; conditions: 1321-n1; further: in other assays of this panel Not Active means under 50% inhibition at 10 µM
T2 sequence (P32238 whole entry): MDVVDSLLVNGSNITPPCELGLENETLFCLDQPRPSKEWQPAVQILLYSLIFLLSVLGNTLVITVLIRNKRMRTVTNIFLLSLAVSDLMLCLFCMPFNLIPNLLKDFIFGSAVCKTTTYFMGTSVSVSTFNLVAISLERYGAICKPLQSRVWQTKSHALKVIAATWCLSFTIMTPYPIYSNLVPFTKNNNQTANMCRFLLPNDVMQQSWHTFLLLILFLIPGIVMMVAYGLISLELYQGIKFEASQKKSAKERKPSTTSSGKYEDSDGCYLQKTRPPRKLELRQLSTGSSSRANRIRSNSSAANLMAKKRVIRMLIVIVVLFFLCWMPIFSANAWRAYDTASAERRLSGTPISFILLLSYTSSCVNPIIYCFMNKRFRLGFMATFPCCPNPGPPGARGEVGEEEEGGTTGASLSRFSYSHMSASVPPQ

[5] = molecular target: T3, Neuropeptide Y receptor type 1 (Homo sapiens, UniProt P25929); assay type: cell membranes, Membrane; conditions: sk-n-mc; further: in other assays of this panel Not Active means under 50% inhibition at 10 µM
T3 sequence (P25929 whole entry): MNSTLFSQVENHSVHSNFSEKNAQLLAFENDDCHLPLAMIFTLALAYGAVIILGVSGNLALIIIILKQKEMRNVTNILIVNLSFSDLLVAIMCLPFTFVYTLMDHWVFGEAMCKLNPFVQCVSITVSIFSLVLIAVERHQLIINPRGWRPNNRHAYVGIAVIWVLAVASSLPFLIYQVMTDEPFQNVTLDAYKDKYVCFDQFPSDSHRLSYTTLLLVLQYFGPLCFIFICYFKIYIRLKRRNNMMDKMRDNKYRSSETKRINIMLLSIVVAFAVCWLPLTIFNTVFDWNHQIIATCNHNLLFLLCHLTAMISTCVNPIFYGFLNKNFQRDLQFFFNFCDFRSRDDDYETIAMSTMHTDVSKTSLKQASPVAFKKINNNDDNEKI

[6] = molecular target: Platelet-activating factor receptor (Homo sapiens, UniProt P25105); assay type: tissue-based; further: in other assays of this panel Not Active means under 50% inhibition at 10 µM
[7] = molecular target: Protein phosphatase 3 catalytic subunit alpha (Homo sapiens, UniProt Q08209); set-up: species or system Escherichia coli
[8] = molecular target: T4, Adenosine receptor A1 (Homo sapiens, UniProt P30542); assay type: cell membranes, CHO, Membrane; conditions: cho
T4 sequence (P30542 whole entry): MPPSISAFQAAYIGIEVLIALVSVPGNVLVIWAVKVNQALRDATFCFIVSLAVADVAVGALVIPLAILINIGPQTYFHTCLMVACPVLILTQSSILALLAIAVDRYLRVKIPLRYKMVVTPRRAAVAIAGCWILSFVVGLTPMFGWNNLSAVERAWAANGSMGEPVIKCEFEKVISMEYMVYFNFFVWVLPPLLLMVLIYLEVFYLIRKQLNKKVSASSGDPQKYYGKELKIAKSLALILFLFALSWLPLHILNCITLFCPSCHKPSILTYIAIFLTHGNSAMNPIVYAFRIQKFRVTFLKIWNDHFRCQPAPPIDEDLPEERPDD

Chain of Platelet-activating factor receptor (P25105 whole entry): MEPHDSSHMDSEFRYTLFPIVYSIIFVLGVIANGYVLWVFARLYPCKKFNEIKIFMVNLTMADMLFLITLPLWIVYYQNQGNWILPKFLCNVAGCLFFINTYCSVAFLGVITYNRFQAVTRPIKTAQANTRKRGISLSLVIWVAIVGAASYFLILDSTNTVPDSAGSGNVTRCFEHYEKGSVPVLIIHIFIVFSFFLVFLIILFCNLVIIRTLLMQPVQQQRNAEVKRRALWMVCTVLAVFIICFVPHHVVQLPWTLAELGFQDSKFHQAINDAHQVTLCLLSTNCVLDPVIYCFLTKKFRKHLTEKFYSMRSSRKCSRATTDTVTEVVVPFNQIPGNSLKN

C[C@H]1C[C@H]2[C@@H]3CCC4=CC(=O)C=C[C@]4(C)[C@@]3(F)[C@@H](O)C[C@]2(C)[C@@]1(O)C(=O)CO [BETAMETHASONE]
Not Active: IC50 [1] | Ki [1] | IC50 [2] | Ki [2] | IC50 [3] | IC50 [4] | IC50 [5] | IC50 [6] | IC50 [7] | IC50 [8]

CC(C)(c1ccc(O)cc1)c1ccc(O)cc1 [BISPHENOL A]
Not Active: IC50 [1] | Ki [1] | IC50 [2] | Ki [2] | IC50 [3] | IC50 [4] | IC50 [5] | IC50 [6] | IC50 [7] | IC50 [8]

Cc1c(N)nc([C@H](CC(N)=O)NC[C@H](N)C(N)=O)nc1C(=O)N[C@H](C(=O)N[C@H](C)[C@@H](O)[C@H](C)C(=O)N[C@H](C(=O)NCCc1nc(-c2nc(C(=O)NCCC[S+](C)C)cs2)cs1)[C@@H](C)O)[C@@H](O[C@@H]1O[C@@H](CO)[C@@H](O)[C@H](O)[C@@H]1O[C@H]1O[C@H](CO)[C@@H](O)[C@H](OC(N)=O)[C@@H]1O)c1c[nH]cn1.[Br-] [BLEOMYCIN A2]
Not Active: IC50 [1] | Ki [1] | IC50 [2] | Ki [2] | IC50 [3] | IC50 [4] | IC50 [5] | IC50 [6] | IC50 [7] | IC50 [8]

CN(Cc1cc(Br)cc(Br)c1N)C1CCCCC1 [BROMHEXINE]
Not Active: IC50 [1] | Ki [1] | IC50 [2] | Ki [2] | IC50 [3] | IC50 [4] | IC50 [5] | IC50 [6] | IC50 [7] | IC50 [8]

CC(N)Cc1c[nH]c2ccc(OCc3cccs3)cc12 (stereo not given) [BW-723C86]
Not Active: IC50 [1] | Ki [1] | IC50 [2] | Ki [2] | IC50 [3] | IC50 [4] | IC50 [5] | IC50 [6] | IC50 [7] | IC50 [8]

CC12CCC(CC1=O)C2(C)C (stereo not given) [CAMPHOR]
Not Active: IC50 [1] | Ki [1] | IC50 [2] | Ki [2] | IC50 [3] | IC50 [4] | IC50 [5] | IC50 [6] | IC50 [7] | IC50 [8]

C[N+](C)(C)CCOC(N)=O.[Cl-] [CARBACHOL]
Not Active: IC50 [1] | Ki [1] | IC50 [2] | Ki [2] | IC50 [3] | IC50 [4] | IC50 [5] | IC50 [6] | IC50 [7] | IC50 [8]

CCCCCCNC(=O)n1cc(F)c(=O)[nH]c1=O [CARMOFUR]
Not Active: IC50 [1] | Ki [1] | IC50 [2] | Ki [2] | IC50 [3] | IC50 [4] | IC50 [5] | IC50 [6] | IC50 [7] | IC50 [8]

COc1ccccc1OCCNCC(O)COc1cccc2[nH]c3ccccc3c12 (stereo not given) [CARVEDILOL]
Not Active: IC50 [1] | Ki [1] | IC50 [2] | Ki [2] | IC50 [3] | IC50 [4] | IC50 [5] | IC50 [6] | IC50 [7] | IC50 [8]

Cl.NC[C@H]1CC[C@H](C(=O)Oc2ccc(CCC(=O)O)cc2)CC1 [CETRAXATE HYDROCHLORIDE]
Not Active: IC50 [1] | Ki [1] | IC50 [2] | Ki [2] | IC50 [3] | IC50 [4] | IC50 [5] | IC50 [6] | IC50 [7] | IC50 [8]

CC1(COc2ccc(CC3SC(=O)NC3=O)cc2)CCCCC1 (stereo not given) [CIGLITAZONE]
Not Active: IC50 [1] | Ki [1] | IC50 [2] | Ki [2] | IC50 [3] | IC50 [4] | IC50 [5] | IC50 [6] | IC50 [7] | IC50 [8]

CC(C)Cc1ccc([C@H](C)C(=O)O)cc1 [DEXIBUPROFEN]
Not Active: IC50 [1] | Ki [1] | IC50 [2] | Ki [2] | IC50 [3] | IC50 [4] | IC50 [5] | IC50 [6] | IC50 [7] | IC50 [8]

O=c1[nH]cnc2c1ncn2[C@H]1CC[C@@H](CO)O1 [DIDANOSINE]
Not Active: IC50 [1] | Ki [1] | IC50 [2] | Ki [2] | IC50 [3] | IC50 [4] | IC50 [5] | IC50 [6] | IC50 [7] | IC50 [8]

ClC1=C(Cl)[C@]2(Cl)[C@@H]3[C@@H]4C[C@@H]([C@H]5O[C@@H]45)[C@@H]3[C@@]1(Cl)C2(Cl)Cl [DIELDRIN]
Not Active: IC50 [1] | Ki [1] | IC50 [2] | Ki [2] | IC50 [3] | IC50 [4] | IC50 [5] | IC50 [6] | IC50 [7] | IC50 [8]

CCN1CCN(c2cc3c(cc2F)c(=O)c(C(=O)O)cn3C2CC2)CC1 [ENROFLOXACIN]
Not Active: IC50 [1] | Ki [1] | IC50 [2] | Ki [2] | IC50 [3] | IC50 [4] | IC50 [5] | IC50 [6] | IC50 [7] | IC50 [8]
